Results taken from patent US20020177621A1, “Antifungal fragrance composition” (priority 2000, published 2002).
Values joined by “and” are separate entries in the source; they are usually repeats but may differ in a detail not shown here. Equal values may be shown once. “Also recorded” adds a separate entry of the source.

Columns and labels:
Assay type in all cases: cell-based
[1] = tested on: Aureobasidium pullulans IFO 6353 (Ap-1); assay: Fragrant vapor antifungal activity (impregnated paper disc on cover of inverted agar plate); settings: 72 hours at 27° C.; for IZ: Diameter of growth inhibition zone: 20 μl fragrance (or 40 μl of 50% ethanol solution) on disc, >85 = growth inhibited over entire plate; for Growth: Growth status outside the inhibition zone / SI: Diameter of spore formation inhibition zone: 20 μl fragrance on disc; for Growth: Growth status outside the inhibition zone: compared with control
Experimental: (§1) Physiological saline containing 0.05% Tween-80 was added to a slant on which the test organism grew well, and a spore suspension was produced at 1×10^6 CFU (Colony Forming Units)/ml in accordance with ordinary methods. Potato dextrose agar (PDA: Nissui Pharmaceutical) was used for the medium. To begin with, 10 ml of sterile PDA was pipetted into a Petri dish and after it solidified, another 6 ml of PDA containing 1% of the above described spore suspension was overlaid and solidified to prepare the test agar plate. For the fragrance sample, if the sample is in the form of liquid at ordinary temperatures, 20 μl of liquid was directly impregnated into a paper disc (Advantech, diameter: 8 mm, thick material), while a 50% by weight ethanol solution was prepared for crystals or powder, and 40 μl of that solution was then impregnated into the paper disc.
(§2) The test agar plate was placed inversely, and the paper disc impregnated with the fragrance sample was placed in the center of the cover of the agar plate, followed by incubating for 72 hours at 27° C. Evaluation was made based on the diameter (mm) of the mold growth inhibition zone. When mold growth was inhibited over the entire surface of the agar plate, the diameter of the growth inhibition zone was reported as >85 mm. At locations where mold grew outside the inhibition zone, the diameter of the spore formation inhibition zone and the degree of growth were recorded by comparing with a control. The molds used in the test are shown in Table 1, wherein these molds consist of mold species that are isolated at high frequencies from rooms and bath rooms.
(§3) The amount of blended fragrance added to the paper discs was 20 μl each, and only the diameter of the inhibition zone (mm) is indicated for the results.

[2] = tested on: Aspergillus niger IFO 9455 (An-1); assay: as above; settings: 72 hours at 27° C.; for IZ: Diameter of growth inhibition zone: 20 μl fragrance (or 40 μl of 50% ethanol solution) on disc, >85 = growth inhibited over entire plate; for Growth: Growth status outside the inhibition zone / SI: Diameter of spore formation inhibition zone: 20 μl fragrance on disc; for Growth: Growth status outside the inhibition zone: compared with control
Experimental: as §1, §2, §3

[3] = tested on: Cladosporium cladosporioides IFO 6348 (Cc-1); assay: as above; settings: 72 hours at 27° C.; for IZ: Diameter of growth inhibition zone: 20 μl fragrance (or 40 μl of 50% ethanol solution) on disc, >85 = growth inhibited over entire plate; for Growth: Growth status outside the inhibition zone: compared with control
Experimental: as §1, §2, §3

[4] = tested on: An-1 (Aspergillus niger); assay: Confirmation of synergistic action of two fragrances (vapor, paper disc); settings: for Synergistic effect: second fragrance that shows synergistic action with the fragrance component / Antagonistic effect: second fragrance that shows antagonistic action with the fragrance component / Additive effect: second fragrance that shows additive action with the fragrance component: value = combination partner; for Synergistic effect: second fragrance that shows synergistic action with the fragrance component: combined IZ 20 mm or more larger than sum of single IZ; for Antagonistic effect: second fragrance that shows antagonistic action with the fragrance component: combined IZ 20 mm or more smaller than sum of single IZ; for Additive effect: second fragrance that shows additive action with the fragrance component: combined IZ intermediate; for IZ (diameter of growth inhibition zone) / Growth (growth status outside the inhibition zone) / SI (diameter of spore formation inhibition zone): 72 hours at 27° C.; for IZ (diameter of growth inhibition zone): sample amount on disc: citral 2 μl, benzaldehyde 10 μl, dimethyl tetrahydrobenzaldehyde 20 μl, geraniol 10 μl, octyl aldehyde 20 μl, 9-decen-1-ol 0.5 μl, trans-2-undecenal 3 μl, phenylacetaldehyde 5 μl, A + B = both amounts on one disc; for Growth (growth status outside the inhibition zone): sample amounts as in Table 3 (citral 2 μl, benzaldehyde 10 μl, dimethyl tetrahydrobenzaldehyde 20 μl, geraniol 10 μl, octyl aldehyde 20 μl, 9-decen-1-ol 0.5 μl, trans-2-undecenal 3 μl, phenylacetaldehyde 5 μl; A + B = both); for SI (diameter of spore formation inhibition zone): sample amounts as in Table 3 (citral 2 μl, benzaldehyde 10 μl, dimethyl tetrahydrobenzaldehyde 20 μl, geraniol 10 μl, octyl aldehyde 20 μl, trans-2-undecenal 3 μl, phenylacetaldehyde 5 μl; A + B = both)
Experimental: An agar plate prepared according to the method of Example 1 was used while using An-1 (Aspergillus niger) for the test fungi. […] 10 μl of the ethanol containing the Table 3 prescribed amount of the fragrance was impregnated into a paper disc. The test agar plate was placed inversely, and the paper disc impregnated with each fragrance alone and a paper disc simultaneously impregnated with two types of fragrances were placed in the center of the cover, followed by incubating for 72 hours at 27° C. and measuring the diameters of the resulting growth inhibition zones.
The results obtained as in Example 2 with other combinations are shown in Tables 4 through 7 as combination examples of respective synergistic, additive and antagonistic actions for each fragrant chemical product (a). […] It should be noted that in order to make the table smaller, combinations that have already been listed once are not listed in other columns of the tables.

SMILES | IZ: Diameter of growth inhibition zone [1] [mm] | Growth: Growth status outside the inhibition zone [1] | IZ: Diameter of growth inhibition zone [2] [mm] | Growth: Growth status outside the inhibition zone [2] | IZ: Diameter of growth inhibition zone [3] [mm] | Growth: Growth status outside the inhibition zone ([3]; 20 μl fragrance on disc) | Synergistic effect: second fragrance that shows synergistic action with the fragrance component [4] | Antagonistic effect: second fragrance that shows antagonistic action with the fragrance component [4] | Additive effect: second fragrance that shows additive action with the fragrance component [4] | SI: Diameter of spore formation inhibition zone [1] [mm] | SI: Diameter of spore formation inhibition zone [2] [mm] | IZ (diameter of growth inhibition zone) [4] [mm] | Growth (growth status outside the inhibition zone) [4] | SI (diameter of spore formation inhibition zone) [4] [mm] | SI: Diameter of spore formation inhibition zone ([3]; 20 μl fragrance on disc) [mm]
O=CCCc1ccccc1 [3-Phenylpropanal] | >85 | none | >85 | none | >85 | none | Citral DMA; also recorded: Citral DEA; also recorded: Citronellal; also recorded: Salicylic aldehyde, | Geraniol |  |  |  |  |  |  | 
C=CCCCCCCCCC=O [10-undecen-1-al] | >85 | sparse | >85 | none | >85 | sparse |  |  | Furfural,; also recorded: Geraniol |  |  |  |  |  | 
COc1ccc(C=O)cc1 [Anisaldehyde] | 35 |  | 45 |  | >85 |  |  |  |  | 40 | 60 |  |  |  | 
O=Cc1ccccc1 [Benzaldehyde] | >85 | none | >85 | none | >85 | none |  |  |  |  |  | 15 | slight | >85 | 
COC(/C=C/c1ccccc1)OC [Cinnamic aldehyde DMA, cinnamic aldehydodimethylacetal] | 65 | slight | 35 | weak | 0 | good |  |  |  |  | 45 |  |  |  | 
COC(C=C(C)CCC=C(C)C)OC [Citral DMA, citral dimethylacetal] | >85 | none | >85 | none | >85 | none |  |  |  |  |  |  |  |  | 
CC(C)=CCCC(C)=CC=O [Citral] | >85 | none | >85 | none | >85 | none |  |  |  |  |  | 0 | weak | 20 | 
CC(C)=CCCC(C)CC=O (stereo not drawn) [Citronellal] | >85 | sparse | 15 | weak | >85 | sparse |  |  | Thymol, and 1-Decanol, and Citronellol |  |  |  |  |  | 
CC(C)=CCCC(C)CCO (stereo not drawn) [Citronellol] | 35 | weak | 35 | good | 35 | weak | Citral DMA,; also recorded: Citral DEA, | Thymol and 9-Decen-1-ol | 1-Nonanal, and 1-Decanol, and Anisaldehyde |  | 55 |  |  |  | 
CC(C)c1ccc(C=O)cc1 [Cumin aldehyde] | >85 | none | >85 | none | >85 | none | Citral DEA; also recorded: Geraniol; also recorded: Cinnamic aldehyde DMA,; also recorded: Phenylacetaldehyde; also recorded: Decanol, Anisaldehyde,; also recorded: Citronellol |  |  |  |  |  |  |  | 
CCCCCCCCC=O [Example 1-nonanal, 1-nonanal] | >85 | sparse | 20 | weak | >85 | sparse |  |  |  |  |  |  |  |  | 
CC(C=O)Cc1ccc2c(c1)OCO2 (stereo not drawn) [Helional] | 35 | weak | 10 | good | 0 | weak |  |  |  |  | 35 |  |  |  | 
CC(C)c1cccc(=O)c(O)c1 [Hinokitiol] | 70 | good | 60 | good | 0 | good |  |  |  |  |  |  |  |  | 
CC=Cc1ccc(O)c(OC)c1 [Isoeugenol] | 35 | good | 30 | good | 45 | good |  |  |  | 40 | 50 |  |  |  | 55
COC(=O)c1ccccc1O [Methyl salicylate] | 65 | weak | 40 | weak | 0 | good |  |  |  |  |  |  |  |  | 
C=C(C)C1CC=C(C=O)CC1 (stereo not drawn) [Perill aldehyde] | >85 | none | >85 | none | >85 | none |  |  |  |  |  |  |  |  | 
C=C(C)[C@@H]1CC=C(CO)CC1 [Perilla alcohol] | 40 | slight | 30 | good | 45 | slight |  |  |  |  | 40 |  |  |  | 
O=CCc1ccccc1 [Phenylacetaldehyde] |  |  |  |  |  |  |  |  |  |  |  | 25 | good | 30 | 
Cc1ccc(C(C)C)c(O)c1 [Thymol] | >85 | sparse | 70 | weak | >85 | sparse |  |  |  |  | >85 |  |  |  | 
